# Measurements as given in PubChem BioAssay (NCI).
#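 96-well plates; 48 h exposure; 5 concentrations. Endpoints by linear interpolation between flanking doses. Not reached: highest tested concentration assigned. GI50 = concentration required for 50% inhibition of growth. TGI marks complete inhibition of growth.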
# Columns and labels:
# Assay in all cases: DTP human tumour cell line panel, 48 h
# 786-0 renal = test system: 786-0 renal
# A549 NSCLC = test system: A549 NSCLC
# ACHN renal = test system: ACHN renal
# CAKI-1 renal = test system: CAKI-1 renal
# CCRF-CEM leukemia = test system: CCRF-CEM leukemia
# COLO 205 colon = test system: COLO 205 colon
# DU-145 prostate = test system: DU-145 prostate
# HCT-116 colon = test system: HCT-116 colon
# HCT-15 colon = test system: HCT-15 colon
# HL-60(TB) leukemia = test system: HL-60(TB) leukemia
# HOP-62 NSCLC = test system: HOP-62 NSCLC
# HS 578T breast = test system: HS 578T breast
# HT29 colon = test system: HT29 colon
# IGROV1 ovarian = test system: IGROV1 ovarian
# K-562 leukemia = test system: K-562 leukemia
# KM12 colon = test system: KM12 colon
# LOX IMVI melanoma = test system: LOX IMVI melanoma
# M14 melanoma = test system: M14 melanoma
# MCF7 breast = test system: MCF7 breast
# MDA-MB-231 breast = test system: MDA-MB-231 breast
# MDA-MB-435 = test system: MDA-MB-435
# MOLT-4 leukemia = test system: MOLT-4 leukemia
# NCI-H226 lung = test system: NCI-H226 lung
# NCI-H23 lung = test system: NCI-H23 lung
# NCI-H460 lung = test system: NCI-H460 lung
# NCI-H522 lung = test system: NCI-H522 lung
# NCI/ADR-RES ovarian = test system: NCI/ADR-RES ovarian
# OVCAR-3 ovarian = test system: OVCAR-3 ovarian
# OVCAR-5 ovarian = test system: OVCAR-5 ovarian
# OVCAR-8 ovarian = test system: OVCAR-8 ovarian
# PC-3 prostate = test system: PC-3 prostate
# RPMI-8226 leukemia = test system: RPMI-8226 leukemia
# RXF 393 renal = test system: RXF 393 renal
# SF-268 CNS = test system: SF-268 CNS
# SF-295 CNS = test system: SF-295 CNS
# SF-539 CNS = test system: SF-539 CNS
# SK-MEL-2 melanoma = test system: SK-MEL-2 melanoma
# SK-MEL-5 melanoma = test system: SK-MEL-5 melanoma
# SK-OV-3 ovarian = test system: SK-OV-3 ovarian
# SN12C renal = test system: SN12C renal
# SNB-19 CNS = test system: SNB-19 CNS
# SR leukemia = test system: SR leukemia
# SW-620 colon = test system: SW-620 colon
# T-47D breast = test system: T-47D breast
# U251 CNS = test system: U251 CNS
# UACC-257 melanoma = test system: UACC-257 melanoma
# UACC-62 melanoma = test system: UACC-62 melanoma
# UO-31 renal = test system: UO-31 renal
# BT-549 breast = test system: BT-549 breast
# HOP-92 NSCLC = test system: HOP-92 NSCLC
# TK-10 renal = test system: TK-10 renal
structure (smiles),measurement,setting,value
COc1ccc(C2=CC(c3ccccc3)n3nnnc3N2)cc1 (stereo not drawn),TGI,786-0 renal,> 100 µM
same,TGI,A549 NSCLC,> 100 µM
same,TGI,ACHN renal,> 100 µM
same,TGI,CAKI-1 renal,> 100 µM
same,TGI,CCRF-CEM leukemia,> 100 µM
same,TGI,COLO 205 colon,> 100 µM
same,TGI,DU-145 prostate,> 100 µM
same,TGI,HCT-116 colon,> 100 µM
same,TGI,HCT-15 colon,> 100 µM
same,TGI,HL-60(TB) leukemia,> 100 µM
same,TGI,HOP-62 NSCLC,> 100 µM
same,TGI,HS 578T breast,> 100 µM
same,TGI,HT29 colon,> 100 µM
same,TGI,IGROV1 ovarian,> 100 µM
same,TGI,K-562 leukemia,> 100 µM
same,TGI,KM12 colon,> 100 µM
same,TGI,LOX IMVI melanoma,> 100 µM
same,TGI,M14 melanoma,> 100 µM
same,TGI,MCF7 breast,> 100 µM
same,TGI,MDA-MB-231 breast,> 100 µM
same,TGI,MDA-MB-435,> 100 µM
same,TGI,MOLT-4 leukemia,> 100 µM
same,TGI,NCI-H226 lung,> 100 µM
same,TGI,NCI-H23 lung,> 100 µM
same,TGI,NCI-H460 lung,> 100 µM
same,TGI,NCI-H522 lung,> 100 µM
same,TGI,NCI/ADR-RES ovarian,> 100 µM
same,TGI,OVCAR-3 ovarian,> 100 µM
same,TGI,OVCAR-5 ovarian,> 100 µM
same,TGI,OVCAR-8 ovarian,> 100 µM
same,TGI,PC-3 prostate,> 100 µM
same,TGI,RPMI-8226 leukemia,> 100 µM
same,TGI,RXF 393 renal,> 100 µM
same,TGI,SF-268 CNS,> 100 µM
same,TGI,SF-295 CNS,> 100 µM
same,TGI,SF-539 CNS,> 100 µM
same,TGI,SK-MEL-2 melanoma,> 100 µM
same,TGI,SK-MEL-5 melanoma,> 100 µM
same,TGI,SK-OV-3 ovarian,> 100 µM
same,TGI,SN12C renal,> 100 µM
same,TGI,SNB-19 CNS,> 100 µM
same,TGI,SR leukemia,> 100 µM
same,TGI,SW-620 colon,> 100 µM
same,TGI,T-47D breast,> 100 µM
same,TGI,U251 CNS,> 100 µM
same,TGI,UACC-257 melanoma,> 100 µM
same,TGI,UACC-62 melanoma,> 100 µM
same,TGI,UO-31 renal,> 100 µM
CN=C(N)N/N=C(\C)c1ccc2c(c1)Cc1cc(/C(C)=N/NC(N)=NC)ccc1-2,GI50,786-0 renal,0.752 µM
same,TGI,786-0 renal,> 100 µM
same,GI50,BT-549 breast,1.96 µM
same,TGI,BT-549 breast,5.62 µM
same,GI50,CAKI-1 renal,2.07 µM
same,TGI,CAKI-1 renal,5.37 µM
same,GI50,CCRF-CEM leukemia,0.444 µM
same,TGI,CCRF-CEM leukemia,> 100 µM
same,GI50,HCT-116 colon,2.36 µM
same,TGI,HCT-116 colon,> 100 µM
same,GI50,HCT-15 colon,2.04 µM
same,TGI,HCT-15 colon,> 100 µM
same,GI50,HOP-62 NSCLC,0.668 µM
same,TGI,HOP-62 NSCLC,> 100 µM
same,GI50,HOP-92 NSCLC,1.33 µM
same,TGI,HOP-92 NSCLC,6.15 µM
same,GI50,HS 578T breast,0.725 µM
same,TGI,HS 578T breast,3.76 µM
same,GI50,HT29 colon,2.13 µM
same,TGI,HT29 colon,> 20.8 µM
same,GI50,MOLT-4 leukemia,0.422 µM
same,TGI,MOLT-4 leukemia,> 100 µM
same,GI50,NCI/ADR-RES ovarian,10.9 µM
same,TGI,NCI/ADR-RES ovarian,> 100 µM
same,GI50,PC-3 prostate,2.13 µM
same,TGI,PC-3 prostate,5.8 µM
same,GI50,SN12C renal,0.254 µM
same,TGI,SN12C renal,0.781 µM
same,GI50,SR leukemia,1.81 µM
same,TGI,SR leukemia,> 100 µM
same,GI50,SW-620 colon,2.36 µM
same,TGI,SW-620 colon,6.19 µM
same,GI50,T-47D breast,2.02 µM
same,TGI,T-47D breast,5.47 µM
same,GI50,TK-10 renal,2.32 µM
same,TGI,TK-10 renal,7.09 µM
same,GI50,UACC-257 melanoma,3.23 µM
same,TGI,UACC-257 melanoma,> 100 µM
same,GI50,UACC-62 melanoma,2.48 µM
same,TGI,UACC-62 melanoma,> 100 µM
